Literature values as cited in patent publication US6482309B1, “Electrolytic generation of nascent iodine as a method of treatment and for the prevention of infections associated with medical implant devices” (OxiBio, Inc., priority 1999, dated 2002).

System: bacteria and viruses

Compound: II [free iodine, iodine]
- level of free iodine required for efficient microbial killing: ~2 ppm
